The test system of one data set is tumors implanted in mice. Particulars: for in vivo antitumor activity: statement in words; for T/C values / gross log kill values: summary over trials, partly worded 'mostly'.
In data set [1] the test system is human tumor cell lines KB and LoVo. As to the kind of experiment: In vitro cytotoxicity, KB and LoVo. The following applies: read-out: cytotoxicities IC50's.
A further data set relates to KB. Description: In vitro cytotoxicity, KB cell line. The class given is cell-based, human. The following applies: read-out: RB IC50.
The test system of another data set is LoVo. As to the kind of experiment: In vitro cytotoxicity, LoVo cell line. The class given is cell-based, human.
A further data set in a line: physchem. Particulars: aqueous base, pH 11.
Data set [2] is described as follows: Methanolysis (solvolysis) of the C-D ester bond. The class given is physicochemical. The following applies: methanol used in the isolation scheme.
A further data set has as its system Mam 16/C. Particulars: SC Tumor Mam 16/C.
A further data set relates to Colon 51. The following applies: SC Tumor Colon 51.
Another data set relates to MX-1 Human Breast. Particulars: Exp # 1806; SC Tumor MX-1 Human Breast; 8 Inj. IV; 12 mg/kg Total Dose.
The next data set concerns Mam 16/Taxol. Particulars: Exp # 1733; SC Tumor Mam 16/Taxol; 5 Inj. IV; 16.5 mg/kg Total Dose.
Another data set has as its system H125 Human Adenosq-lung. Particulars: Exp # 1823; SC Tumor H125 Human Adenosq-lung; 8 Inj. IV; 14.4 mg/kg Total Dose.
The test system of a further data set is LNCaP Human Prostate. The following applies: Exp # 1841; SC Tumor LNCaP Human Prostate; 6 Inj. IV; 6.5 mg/kg Total Dose.
The subject of data set [3] is Human Sm Cell L. DMS273 SCID. The following applies: Exp # 1596; SC Tumor Human Sm Cell L. DMS273 SCID; 6 Inj. IV; 7.3 mg/kg Total Dose.
A further data set deals with M17/0 (Adr. Sens.). Particulars: Exp # 1833; SC Tumor M17/0 (Adr. Sens.); 5 Inj. IV; 5.4 mg/kg Total Dose.
Data set [4] has as its system A-10 rat aortic smooth muscle cells. As to the kind of experiment: Immunofluorescence of cytoskeleton in A-10 cells. In kind it is cell-based. Particulars: A-10 cells, 24 hours; 2µM cytochalasin B, 100nM vinblastine or 10nM cryptophycin compounds. On the procedure:
A-10 cells were grown to near-confluency on glass coverslips in BME/10% FBS. Compounds in PBS were added to the indicated final concentrations and cells were incubated for an additional 24 hours. For the staining of microtubules and intermediate filaments, the cells were fixed with cold methanol and incubated with PBS containing 10% calf serum to block nonspecific binding sites. Cells were then incubated at 37°C for 60 min with either monoclonal anti-β-tubulin or with monoclonal anti-vimentin at dilutions recommended by the manufacturer. Bound primary antibodies were subsequently visualized by a 45-minute incubation with fluorescein-conjugated rabbit antimouse IgG. The coverslips were mounted on microscope slides and the fluorescence patterns were examined and photographed using a Zeiss Photomicroscope ill equipped with epifluorescence optics for fluorescein. […] PBS containing 100nM TRITC-phalloidin was then added and the mixture was allowed to incubate for 45 min at 37° C. The cells were washed rapidly three times with PBS before the coverslips were mounted and immediately photographed as described above.

[5] abbreviates: Exp # 1843, SC Tumor P03, 4 Inj. IV, 28/5 mg/kg TD.
Setting [6] is: Exp # 1813, SC Tumor P03, 9 Inj. IV, 27 mg/kg TD.
[7] abbreviates: Exp # 1825, SC Tumor P03, 11 Inj. IV, 106 mg/kg TD.
Where [8] appears, read: Exp # 1887 B, SC Tumor C38, 6 Inj. IV, 30 mg/kg TD.
The mark [9] stands for this setting: Exp # 1885, 7 Inj. IV, 21.3 mg/kg TD.
[10] abbreviates: Exp # 1900, 9 Inj. IV, 67.5 mg/kg TD.
Where [11] appears, read: Exp # 1878, SC Tumor P03, 9 Inj. IV, 82 mg/kg TD.
The mark [12] stands for this setting: Exp # 1843, SC Tumor P03, 7 Inj. IV, 23 mg/kg TD.
Setting [13] is: Exp # 1560, SC Tumor Colon 38, 8 Inj. IV, 10.3 mg/kg Total Dose.
[14] abbreviates: Exp # 1720, 5 Inj. IV, 13.2 mg/kg Total Dose.
Setting [15] is: Exp # 1636, 7 Inj. IV, 28.1 mg/kg Total Dose.

Entries after “also recorded” stand apart in the source; their conditions may differ. Like-named read-outs stand apart in the source and are kept apart here.

Consider `COc1ccc(C[C@H]2NC(=O)/C=C/C[C@@H]([C@H](C)/C=C/c3ccccc3)OC(=O)[C@H](CC(C)C)OC(=O)[C@H](C)CNC2=O)cc1Cl` [Cryptophycin 3], for which, in the data set on Panc 03 (setting [5]), the “% Body Wt. Loss at Nadir” value was -9%, the Cures is 0/5, the “Log Kill” value is reported as less than 1 and the T/C is listed as 54%. Also, the “in vivo antitumor activity” value with tumors implanted in mice is “antitumor activity is greatly diminished”. Besides, the IC50 in [1] is 3.5 to 5.8 nM. Further, in the data set with KB, the IC50 lay in the range of 3.1 to 4.6 nM. The compound further had an IC50 in the data set on LoVo of 1.9 to 5.8 nM.

Regarding `COc1ccc(C[C@H]2NC(=O)/C=C/C[C@@H]([C@H](C)[C@@H](O)[C@@H](Br)c3ccccc3)OC(=O)[C@H](CC(C)C)OC(=O)[C@H](C)CNC2=O)cc1Cl` [Cryptophycin 25], the “T/C and gross log kill values, comparison in words” value in the data set with tumors implanted in mice (mouse, in vivo) was “comparable with those for Cryptophycin 1”.

With `COc1ccc(C[C@H]2NC(=O)/C=C/C[C@@H]([C@H](C)[C@H]3O[C@@H]3c3ccccc3)OC(=O)[C@H](CC(C)C)OC(=O)CCNC2=O)cc1Cl` [Cryptophycin 21], in the data set on Panc 03 (setting [6]), the “% Body Wt. Loss at Nadir” value is on record as -11%, the Cures was 0/5, the “Log Kill” value was “None” and the T/C is 61%. The dead in the data set on Panc 03 (setting [6]) is recorded as 1/5. In the data set with tumors implanted in mice, the “in vivo antitumor activity” value was “inactive”. The same compound showed a half-life in the data set “physchem” of 15 min. Further, the “methanolysis of the C-D ester bond” value in data set [2] is reported as “considerable methanolysis; also recorded: much more susceptible to methanolysis than Cryptophycin 1”.

As to `COc1ccc(C[C@H]2NC(=O)/C=C/C[C@@H]([C@H](C)[C@@H](O)[C@@H](Cl)c3ccccc3)OC(=O)[C@H](CC(C)C)OC(=O)[C@H](C)CNC2=O)cc1Cl` [Cryptophycin 8], the “% Body Wt. Loss at Nadir” value in the data set on Panc 03 (setting [7]) is -6%; with Colon 38 (setting [8]), -2%; with Mam 16/C (setting [9]), -4.5%; in the data set on Colon 51 (setting [10]), -1%. Moreover, the Cures in the data set with Panc 03 (setting [7]) was 0/5; with Colon 38 (setting [8]), 1/5; in the data set with Mam 16/C (setting [9]), 0/5; with Colon 51 (setting [10]), 0/5. The T/C in the data set on Panc 03 (setting [7]) turned out to be 4%; with Colon 38 (setting [8]), 0%; in the data set with Mam 16/C (setting [9]), 6%; in the data set with Colon 51 (setting [10]) it was 7%. The “Log Kill” value amounted to 4.6 in the data set with Panc 03 (mouse, in vivo, 106 mg/kg); 2.8 in the data set with Colon 38 (setting [8]); 2.5 in the data set with Mam 16/C (setting [9]); 1.8 in the data set with Colon 51 (setting [10]). In the data set on tumors implanted in mice, this compound gave a T/C values of 0%. For the same compound, in the data set on tumors implanted in mice, the “gross log kill values” is greater than 2.8. For the same compound, the IC50 in data set [1] is 0.009 to 0.019 nM; in the data set on KB, 0.019 nM; in the data set on LoVo, 0.0091 nM.

As to `CC(C)C[C@@H]1OC(=O)[C@H](C)CNC(=O)[C@@H](Cc2ccc(O)c(Cl)c2)NC(=O)/C=C/C[C@@H]([C@H](C)[C@H]2O[C@@H]2c2ccccc2)OC1=O` [Cryptophycin 16], in the data set with Panc 03 (setting [11]), the “% Body Wt. Loss at Nadir” value is on record as -1%, the Cures was 0/5, the “Log Kill” value is listed as “None” and the T/C came out at 89%.

With `COc1ccc(C[C@H]2NC(=O)/C=C/C[C@@H]([C@H](C)/C=C/c3ccccc3)OC(=O)[C@H](CC(C)C)OC(=O)C(C)(C)CNC2=O)cc1Cl` [Cryptophycin 51], the IC50 in data set [1] was in the range of 3.5 to 5.8 nM.

For the compound `COc1ccc(CC2NC(=O)CCCC(C(C)C3OC3c3ccccc3)OC(=O)C(CC(C)C)OC(=O)C(C)CNC2=O)cc1Cl` (stereo not drawn) [Cryptophycin 35], in the data set with Panc 03 (setting [12]), the “% Body Wt. Loss at Nadir” value is reported as -2%, the Cures is on record as 0/5, the “Log Kill” value is 1.3 and the T/C turned out to be 11%.

Regarding `COc1ccc(C[C@H]2NC(=O)/C=C/C[C@@H]([C@H](C)[C@H]3O[C@@H]3c3ccccc3)OC(=O)[C@H](CC(C)C)OC(=O)[C@H](C)CNC2=O)cc1Cl` [Cryptophycin 1], the “% Body Wt. Loss at Nadir” value is -3% in the data set with MX-1 Human Breast; 0% with Mam 16/Taxol; -15% in the data set on H125 Human Adenosq-lung; “Gain” in the data set with Colon 38 (setting [13]); -1% in the data set on Mam 16/C (setting [14]); -6% in the data set on LNCaP Human Prostate. The “% Body Wt. Loss at Nadir” value in data set [3] was 0%; in the data set on M17/0 (Adr. Sens.), -10%; in the data set on Colon 51 (setting [15]) it was -11%. Moreover, the Cures in the data set on MX-1 Human Breast, in the data set on Mam 16/Taxol, with H125 Human Adenosq-lung, with Colon 38 (setting [13]), in the data set with Mam 16/C (setting [14]) and with LNCaP Human Prostate was 0/5 throughout. For the same compound, the Cures (in data set [3]; in the data set on M17/0 (Adr. Sens.); with Colon 51 (setting [15])) was 0/5 throughout. Moreover, the “Log Kill” value is listed as 2.0 in the data set on MX-1 Human Breast; 1.8 with Mam 16/Taxol; 1.1 in the data set with H125 Human Adenosq-lung; 1.5 with Colon 38 (setting [13]); 1.4 in the data set on Mam 16/C (setting [14]); less than 1 in the data set with LNCaP Human Prostate. The “Log Kill” value is listed as less than 1 in data set [3], less than 1 in the data set with M17/0 (Adr. Sens.) and 1.3 in the data set on Colon 51 (setting [15]). Also, the T/C with MX-1 Human Breast is reported as 3%; in the data set with Mam 16/Taxol, 2%; in the data set with H125 Human Adenosq-lung, 9%; in the data set with Colon 38 (setting [13]) it was 6%; in the data set on Mam 16/C (setting [14]), 5%; with LNCaP Human Prostate, 26%. The T/C in [3] is on record as 27%; in the data set with M17/0 (Adr. Sens.), 23%; in the data set with Colon 51 (setting [15]), 7%. The toxicity in animals result with tumors implanted in mice (compared with Cryptophycin 8) is “appreciable toxicity”. Further, the T/C values in the data set with tumors implanted in mice is recorded as greater than 0%. Further, the “gross log kill values” with tumors implanted in mice is recorded as less than 2.0. Further, the dead in the data set on H125 Human Adenosq-lung is given as 1/5. Further, the IC50 in [1] is 0.009 to 0.029 nM; with KB, 0.0092 nM; in the data set with LoVo, 0.0104 nM. In “physchem”, this compound gave a half-life of 49.8 min. Moreover, the “methanolysis of the C-D ester bond” value in data set [2] was “considerable methanolysis”.

On to `C=C1[C@@H](C)[C@H]2[C@H](Cc3ccccc3)NC(=O)[C@]23OC(=O)/C=C/[C@H](O)CCC[C@@H](C)C/C=C/[C@H]3[C@@H]1O` [Cytochalasin B, cytochalasin B], for which, in data set [4], the effect on microfilaments entry is listed as “complete depolymerization of microfilaments”, the effect on microtubules result was “did not affect the distribution of either mierotubules or intermediate filaments” and the “effect on vimentin intermediate filaments” value is “did not affect the distribution of either mierotubules or intermediate filaments”.

For `COc1ccc(C[C@H]2NC(=O)/C=C/C[C@@H]([C@H](C)[C@@H](O)[C@@H](O)c3ccccc3)OC(=O)[C@H](CC(C)C)OC(=O)[C@H](C)CNC2=O)cc1Cl` [Cryptophycin 15], the “in vivo antitumor activity” value with tumors implanted in mice is “antitumor activity is greatly diminished”.

The T/C is the result in the treated group divided by that in the control group, in per cent. Broadly, the IC50 is the concentration that inhibits the measured activity by half. What is called half-life is the time in which the quantity being followed falls by half. Higher therefore signals slow decline.
